The source of these data is patent publication US20230339871A1, “COMPOUNDS AND METHODS OF MODULATING 17B-HYDROXYSTEROID DEHYDROGENASE TYPE 13” (METREA BIOSCIENCES, INC., priority 2020, published 2023).

Each structure is given as a SMILES string. Bounds are passed on as bounds.

The assay concerns the target T1, recombinant human full-length HSD17B13 protein (Homo sapiens, UniProt Q7Z5P4).
T1 construct: recombinant human full-length HSD17B13 protein; 6xHis (C); made in house; host or cells: HEK293E-253/FH
T1 sequence (Q7Z5P4 20-300): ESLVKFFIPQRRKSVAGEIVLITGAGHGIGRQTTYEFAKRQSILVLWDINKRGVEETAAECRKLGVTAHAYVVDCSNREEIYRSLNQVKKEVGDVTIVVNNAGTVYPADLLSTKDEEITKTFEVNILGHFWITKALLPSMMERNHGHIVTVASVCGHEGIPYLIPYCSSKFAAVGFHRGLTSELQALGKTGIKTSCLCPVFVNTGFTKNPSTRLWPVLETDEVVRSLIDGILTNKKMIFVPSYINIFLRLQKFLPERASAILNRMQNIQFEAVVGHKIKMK
Nature of the assay: HSD17B13 96 luminescence inhibition assay (NAD(P)H-Glo). In kind it is biochemical. The procedure: Compounds of the present disclosure were tested for inhibition of HSD17B13 using the following protocol. Briefly, recombinant human full-length HSD17B13 protein with a 6X-C-terminal His tag was expressed in cell line HEK293E-253/FH and purified using Ni^2+-affinity purification. Enzymatic activity was determined through the production of NADH using the NAD(P)H-Glo Detection System (Promega). The inhibitory activity of test compounds was determined in reactions performed at 30° C. in assay buffer consisting of 25 mM EPPS (8.0), 125 mM NaCl, 0.03% Triton X-100, 0.03% BSA, with […] steroid substrate (1,3,5(10), 7-estratetraen-3, 17b-diol (Steraloids E0580)) added from a 2.5 mM DMSO stock and 500 mM NAD. The final percentage of DMSO was 4.5%. After a one-hour incubation, a 20% volume of luciferase Glo-reagent was added and light units captured on a Victor V Plate Reader (Perkin Elmer).
Concentration-response curves for inhibitors were normalized to control samples containing enzyme only (negative control) and sample without enzyme (positive control). 50% inhibition (IC50) values were determined using a nonlinear least squares fit of the data to a four-parameter equation using Prism 6.0 (GraphPad Software, San Diego).
By IC50 is commonly meant the concentration that inhibits the measured activity by half. Turning to `O=C(c1cc(O)c(F)c(F)c1)c1ccc(-c2ccc(F)c(O)c2F)s1` [Compound 30, (5-(2,4-difluoro-3-hydroxyphenyl)thiophen-2-yl)(3,4-difluoro-5-hydroxyphenyl) methanone], the IC50 lay within 1 to 5 µM.

Turning to `COc1cccc(CNC(=O)c2ccc3cc(F)c(O)c(F)c3n2)c1` [Compound 39, 6,8-difluoro-7-hydroxy-N-[(3-methoxyphenyl)methyl]quinoline-2-carboxamide], the IC50 lay in the range of 1 to 5 µM.

On to `O=C1O/C(=C\c2ccc(F)c(O)c2)C(=O)N1Cc1cccc(O)c1` [Compound 10, (Z)-5-(4-fluoro-3-hydroxybenzylidene)-3-(3-hydroxybenzyl)oxazolidine-2,4-dione], for which the IC50 was greater than 5 µM.

On to `NC(=O)c1cccc(CN2C(=O)S/C(=C\c3ccc(F)c(O)c3)C2=O)c1` [Compound 18, (Z)-3-((5-(4-fluoro-3-hydroxybenzylidene)-2,4-dioxothiazolidin-3-yl)methyl) benzamide], for which the IC50 lay in the range of 1 to 5 µM.

With `N#Cc1cccc(CNC(=O)c2ccc3cc(F)c(O)cc3n2)c1` [Compound 27, N-(3-cyanobenzyl)-6-fluoro-7-hydroxyquinoline-2-carboxamide], the 50% inhibitory concentration (IC50) was greater than 5 µM.

For the compound `CS(=O)(=O)N1CCC(CN2C(=O)S/C(=C\c3c(F)cc(F)c(O)c3F)C2=O)C1` (stereo not drawn) [Compound 1, (Z)-3-((1-(methylsulfonyl)pyrrolidin-3-yl)methyl)-5-(2,4,6-trifluoro-3-hydroxybenzylidene)thiazolidine-2,4-dione], the IC50 is greater than 5 µM.

With `O=C(c1ccc(-c2ccc(F)c(O)c2F)s1)c1cc(F)c(F)c(O)c1F` [Compound 31, (5-(2,4-difluoro-3-hydroxyphenyl)thiophen-2-yl)(2,4,5-trifluoro-3-hydroxyphenyl) methanone], the IC50 fell in the range of 1 to 5 µM.

`O=C(c1ccc(F)c(O)c1)c1ccc(-c2ccc(F)c(O)c2F)s1` [Compound 28, (5-(2,4-difluoro-3-hydroxyphenyl)thiophen-2-yl)(4-fluoro-3-hydroxyphenyl) methanone]: the IC50 was 1 to 5 µM.

On to `O=C(NCc1cccc(-c2nnn[nH]2)c1)c1ccc2cc(F)c(O)cc2n1` [Compound 25, N-(3-(1H-tetrazol-5-yl)benzyl)-6-fluoro-7-hydroxyquinoline-2-carboxamide], for which the IC50 is greater than 5 µM.

`O=C1S/C(=C\c2ccc(F)c(O)c2)C(=O)N1CC1CCOCC1` [Compound 14, (Z)-5-(4-fluoro-3-hydroxybenzylidene)-3-((tetrahydro-2H-pyran-4-yl)methyl)thiazolidine-2,4-dione]: the IC50 is greater than 5 µM.

As for `O=C1S/C(=C\c2ccc(F)c(O)c2)C(=O)N1Cc1cccc(O)c1` [Compound 11, (Z)-5-(4-fluoro-3-hydroxybenzylidene)-3-(3-hydroxybenzyl)thiazolidine-2,4-dione], the IC50 lay within 1 to 5 µM.

For `NS(=O)(=O)c1cccc(CN2C(=O)S/C(=C\c3ccc(F)c(O)c3)C2=O)c1` [Compound 33, (Z)-3-((5-(4-fluoro-3-hydroxybenzylidene)-2,4-dioxothiazolidin-3-yl)methyl) benzenesulfonamide], the IC50 is no more than 1 µM.

As for `O=C1S/C(=C\c2ccc(F)c(O)c2)C(=O)N1Cc1cc(O)cc(F)c1` [Compound 9, (Z)-5-(4-fluoro-3-hydroxybenzylidene)-3-(3-fluoro-5-hydroxybenzyl)thiazolidine-2,4-dione], the IC50 is 1 to 5 µM.

For `O=C(NCc1cccc(O)c1)c1ccc2cc(F)c(O)cc2n1` [Compound 24, 6-fluoro-7-hydroxy-N-(3-hydroxybenzyl)quinoline-2-carboxamide], the IC50 is 1 to 5 µM.

For `O=C1S/C(=C\c2ccc(F)c(O)c2)C(=O)N1Cc1cccc(-c2c[nH]nn2)c1` [Compound 15, (Z)-3-(3-(1H-1,2,3-triazol-4-yl)benzyl)-5-(4-fluoro-3-hydroxybenzylidene) thiazolidine-2,4-dione], the half-inhibitory concentration (IC50) was 1 to 5 µM.
